Reference: ChEMBL document CHEMBL3885881, “DrugMatrix”

Organism: Rattus norvegicus
Experiment: DrugMatrix - Regimen: Daily Repeat
Assay type: toxicity, organism-based, Sprague-Dawley
Design: regimen Daily Repeat, gender Male, age 6-8 weeks
Conditions: in vivo, po, route oral GAVAGE, […]; for ABSOLUTE BASOPHIL / ABSOLUTE EOSINOPHIL / ABSOLUTE LYMPHOCYTE / ABSOLUTE MONOCYTE / ABSOLUTE SEGMENTED NEUTROPHIL / BASOPHIL / EOSINOPHIL / ERYTHROCYTE COUNT / HEMATOCRIT / HEMOGLOBIN / LEUKOCYTE COUNT / LYMPHOCYTE / MEAN CORPUSCULAR HEMOGLOBIN / MEAN CORPUSCULAR HEMOGLOBIN CONCENTRATION / MEAN CORPUSCULAR VOLUME / MONOCYTE / NEUTROPHIL / NUCLEATED RED BLOOD CELLS / PLATELET COUNT: tissue Blood; for ALANINE AMINOTRANSFERASE / ALBUMIN / ALKALINE PHOSPHATASE / ASPARTATE AMINOTRANSFERASE / BLOOD UREA NITROGEN / CARBON DIOXIDE / CHLORIDE / CHOLESTEROL / CREATINE PHOSPHOKINASE / CREATININE / GLUCOSE / LACTATE DEHYDROGENASE / LIPASE / PHOSPHORUS / POTASSIUM / SODIUM / TOTAL BILIRUBIN / TOTAL PROTEIN / URIC ACID: tissue Plasma
[1] = 0 mg/kg, 72 h, dose level Control, time 3 day
[2] = 0 mg/kg, 120 h, dose level Control, time 5 day
[3] = 0 mg/kg, dose level Control, time 14 day
[4] = 1200 mg/kg, 72 h, dose level High, time 3 day
[5] = 1200 mg/kg, dose level High, time 14 day

Structure (SMILES): CC[C@H](C)C(=O)O[C@H]1C[C@H](O)C=C2C=C[C@H](C)[C@H](CC[C@@H](O)C[C@@H](O)CC(=O)O)[C@H]21 [PRAVASTATIN]
- ABSOLUTE BASOPHIL [1]: 0 CELLS/uL
- ABSOLUTE EOSINOPHIL [1]: 14 CELLS/uL
- ABSOLUTE LYMPHOCYTE [1]: 11144.67 CELLS/uL
- ABSOLUTE MONOCYTE [1]: 22.5 CELLS/uL
- ABSOLUTE SEGMENTED NEUTROPHIL [1]: 535.5 CELLS/uL
- BASOPHIL [1]: 0%
- EOSINOPHIL [1]: 0.17%
- ERYTHROCYTE COUNT [1]: 5.08 x10E6/uL
- HEMATOCRIT [1]: 32.32%
- HEMOGLOBIN [1]: 12.87 G/DL
- LEUKOCYTE COUNT [1]: 11.72 x10E3/uL
- LYMPHOCYTE [1]: 94.67%
- MEAN CORPUSCULAR HEMOGLOBIN [1]: 25.37 pg
- MEAN CORPUSCULAR HEMOGLOBIN CONCENTRATION [1]: 39.85 G/DL
- MEAN CORPUSCULAR VOLUME [1]: 63.58 fL
- MONOCYTE [1]: 0.17%
- NEUTROPHIL [1]: 5%
- NUCLEATED RED BLOOD CELLS [1]: 0 /100WBC
- PLATELET COUNT [1]: 1084 x10E3/uL
- ALANINE AMINOTRANSFERASE [1]: 67.5 u/L
- ALBUMIN [1]: 4.02 G/DL
- ALKALINE PHOSPHATASE [1]: 374.17 u/L
- ASPARTATE AMINOTRANSFERASE [1]: 83.5 u/L
- BLOOD UREA NITROGEN [1]: 14.5 mg/dL
- CARBON DIOXIDE [1]: 30 mmol/L
- CHLORIDE [1]: 100.5 MEQ/L
- CHOLESTEROL [1]: 71.33 mg/dL
- CREATINE PHOSPHOKINASE [1]: 268.33 u/L
- CREATININE [1]: 0.16 mg/dL
- GLUCOSE [1]: 170.5 mg/dL
- LACTATE DEHYDROGENASE [1]: 81.17 u/L
- LIPASE [1]: 16.67 u/L
- PHOSPHORUS [1]: 10.07 mg/dL
- POTASSIUM [1]: 5.03 MEQ/L
- SODIUM [1]: 142.92 MEQ/L
- TOTAL BILIRUBIN [1]: 0.17 mg/dL
- TOTAL PROTEIN [1]: 5.63 G/DL
- URIC ACID [1]: 0.5 mg/dL
- ABSOLUTE SEGMENTED NEUTROPHIL [2]: 646.83 CELLS/uL
- NUCLEATED RED BLOOD CELLS [2]: 0.17 /100WBC
- ABSOLUTE BASOPHIL [3]: 100 cells/µL
- ABSOLUTE EOSINOPHIL [3]: 57.5 cells/µL
- ABSOLUTE LYMPHOCYTE [3]: 11800 cells/µL
- ABSOLUTE MONOCYTE [3]: 290 cells/µL
- BASOPHIL [3]: 0.47%
- EOSINOPHIL [3]: 0.41%
- ERYTHROCYTE COUNT [3]: 7.31 x10E6/uL
- HEMATOCRIT [3]: 46.8%
- HEMOGLOBIN [3]: 14.69 G/DL
- LEUKOCYTE COUNT [3]: 14.73 x10E3/uL
- LYMPHOCYTE [3]: 80.94%
- MEAN CORPUSCULAR HEMOGLOBIN [3]: 20.09 pg
- MEAN CORPUSCULAR HEMOGLOBIN CONCENTRATION [3]: 31.41 G/DL
- MEAN CORPUSCULAR VOLUME [3]: 64.03 fL
- MONOCYTE [3]: 1.9%
- NEUTROPHIL [3]: 15.1%
- PLATELET COUNT [3]: 1273.62 x10E3/uL
- ALANINE AMINOTRANSFERASE [3]: 56.75 u/L
- ALBUMIN [3]: 3.84 G/DL
- ALKALINE PHOSPHATASE [3]: 530.25 u/L
- ASPARTATE AMINOTRANSFERASE [3]: 78.88 u/L
- BLOOD UREA NITROGEN [3]: 12.25 mg/dL
- CARBON DIOXIDE [3]: 41.38 mmol/L
- CHLORIDE [3]: 102.38 MEQ/L
- CHOLESTEROL [3]: 67.88 mg/dL
- CREATINE PHOSPHOKINASE [3]: 297.25 u/L
- CREATININE [3]: 0.61 mg/dL
- GLUCOSE [3]: 161.88 mg/dL
- LACTATE DEHYDROGENASE [3]: 161.38 u/L
- LIPASE [3]: 16.75 u/L
- PHOSPHORUS [3]: 10.13 mg/dL
- POTASSIUM [3]: 6.73 MEQ/L
- SODIUM [3]: 149 MEQ/L
- TOTAL BILIRUBIN [3]: 0.29 mg/dL
- TOTAL PROTEIN [3]: 6.73 G/DL
- URIC ACID [3]: 1.14 mg/dL
- ABSOLUTE BASOPHIL [4]: 0 CELLS/uL
- BASOPHIL [4]: 0%
- NUCLEATED RED BLOOD CELLS (1200 mg/kg, 120 h, dose level High, time 5 day): 0 /100WBC
- ABSOLUTE BASOPHIL [5]: 66.7 cells/µL
- ABSOLUTE EOSINOPHIL [5]: 80 cells/µL
- ABSOLUTE LYMPHOCYTE [5]: 4950 cells/µL
- ABSOLUTE MONOCYTE [5]: 1.18 CELLS/uL
- BASOPHIL [5]: 0.33%
- EOSINOPHIL [5]: 0.5%
- ERYTHROCYTE COUNT [5]: 8.11 x10E6/uL
- HEMATOCRIT [5]: 47.4%
- HEMOGLOBIN [5]: 15.87 G/DL
- LEUKOCYTE COUNT [5]: 17.97 x10E3/uL
- LYMPHOCYTE [5]: 29.8%
- MEAN CORPUSCULAR HEMOGLOBIN [5]: 19.53 pg
- MEAN CORPUSCULAR HEMOGLOBIN CONCENTRATION [5]: 33.43 G/DL
- MEAN CORPUSCULAR VOLUME [5]: 58.47 fL
